Literature values as cited in US20240033215A1 (AMOS PHARM, priority 2022, published 2024).
Values after ≈ are worked out from the molar mass of the structure shown. Read-outs that look alike come from different tables or passages of the source.

CC(C)Cc1ccc([C@H](C)C(=O)O)cc1 [Dexibuprofen]
solubility (at acidic pH): 0.078 mg/mL (≈ 0.378 mM) | solubility (at alkaline pH): 291 mg/mL (≈ 1410 mM)
